Measurements: the supplement of paper PMC11061612

Tests used:
Assay in all cases: combination Emax (second highest fraction inhibited in the dose matrix, 72 h); higher = more inhibition; extreme values may be limits of the assay
[1] = system: CAPAN-1 (Pancreatic Carcinoma)
Method in brief: (§1)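 Bliss excess equals the observed combination effect minus the expected value EA + EB − EA·EB, where EA and EB are the effects of each agent alone. Combination Emax is the second-highest inhibition within the matrix. Inhibition was scaled from CellTiter-Glo 2.0 luminescence, with 0 set by vehicle wells and 1 by blank wells, after 72 hours of two-drug dosing of cells plated in 1536-well plates.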

[2] = system: EN (Endometrial Carcinoma)
Method in brief: as §1

[3] = system: HCC-15 (Squamous Cell Lung Carcinoma)
Method in brief: as §1

[4] = system: HDLM-2 (Hodgkin's Lymphoma)
Method in brief: as §1

[5] = system: HO-1-u-1 (Oral Cavity Carcinoma)
Method in brief: as §1

[6] = system: K5 (Thyroid Gland Carcinoma)
Method in brief: as §1

[7] = system: KYSE-410 (Esophageal Squamous Cell Carcinoma)
Method in brief: as §1

[8] = system: LB771-HNC (Head and Neck Carcinoma)
Method in brief: as §1

[9] = system: MDA-MB-468 (Breast Carcinoma)
Method in brief: as §1

[10] = system: MHH-PREB-1 (B-Cell Non-Hodgkin's Lymphoma)
Method in brief: as §1

[11] = system: NB14 (Neuroblastoma)
Method in brief: as §1

[12] = system: NCI-H2795 (Mesothelioma)
Method in brief: as §1

[13] = system: NCI-H69 (Small Cell Lung Carcinoma)
Method in brief: as §1

[14] = system: OVCAR-8 (Ovarian Carcinoma)
Method in brief: as §1

[15] = system: RKO (Colorectal Carcinoma)
Method in brief: as §1

[16] = system: SH-4 (Melanoma)
Method in brief: as §1

[17] = system: SK-OV-3 (Ovarian Carcinoma)
Method in brief: as §1

[18] = system: SUP-T1 (T-Lymphoblastic Leukemia)
Method in brief: as §1

[19] = system: SW1271 (Small Cell Lung Carcinoma)
Method in brief: as §1

[20] = system: SW626 (Colorectal Carcinoma)
Method in brief: as §1

Row | Compound | combination Emax [1] | combination Emax [2] | combination Emax [3] | combination Emax [4] | combination Emax [5] | combination Emax [6] | combination Emax [7] | combination Emax [8] | combination Emax [9] | combination Emax [10] | combination Emax [11] | combination Emax [12] | combination Emax [13] | combination Emax [14] | combination Emax [15] | combination Emax [16] | combination Emax [17] | combination Emax [18] | combination Emax [19] | combination Emax [20]
1 | CN(CCO)CC[C@H](CSc1ccccc1)Nc1ccc(S(=O)(=O)NC(=O)c2ccc(N3CCC([C@@H](O)c4ccccc4-c4ccc(Cl)cc4)CC3)cc2)cc1S(=O)(=O)C(F)(F)F [AZD4320] + CCN(CCO)CCCOc1ccc2c(Nc3cc(CC(=O)Nc4cccc(F)c4)[nH]n3)ncnc2c1 [AZD2811] (first compound max 1 µM, 7x7, partner max 1 µM) | 0.336 | 0.381 | 0.966 | 0.924 | 0.824 | 0.33 | 0.17 | 0.191 | 0.885 | 0.2 | 1 | 0.284 | 0.896 | 0.651 | 0.194 | 0.181 | 0.178 | 0.545 | 0.234 | 0.825
2 | NC1(C(=O)N[C@@H](CCO)c2ccc(Cl)cc2)CCN(c2ncnc3[nH]ccc23)CC1 [Capivasertib] + CC(=O)c1c(C)c2cnc(Nc3ccc(N4CCNCC4)cn3)nc2n(C2CCCC2)c1=O [Palbociclib] (first compound max 10 µM, 7x7, partner max 10 µM) | 0.277 | 0.546 | 0.633 | 0.29 | 0.806 | 0.653 | 0.549 | 0.403 | 0.508 | 0.502 | 0.598 | 0.489 | 0.764 | 0.221 | 0.601 | 0.427 | 0.417 | 0.677 | 0.349 | 0.348
3 | Cc1c2c(nn1C)CSCc1cc(n(C)n1)CSc1cc(c3ccccc3c1)OCCCc1c(C(=O)O)n(C)c3c-2c(Cl)ccc13 [AZD5991] + C[C@@H](Nc1cc(F)cc(F)c1)c1cc(C(=O)N(C)C)cc2c(=O)cc(N3CCOCC3)oc12 [AZD8186] (first compound max 1 µM, 7x7, partner max 3 µM) | 0.172 | 0.558 | 0.203 | 0.996 | 0.279 | 0.362 | 0.221 | 0.486 | 0.605 | 0.214 | 0.898 | 0.926 | 0.305 | 0.268 | 0.277 | 0.332 | 0.424 | 0.279 | 0.207 | 0.223
4 | CN(CCO)CC[C@H](CSc1ccccc1)Nc1ccc(S(=O)(=O)NC(=O)c2ccc(N3CCC([C@@H](O)c4ccccc4-c4ccc(Cl)cc4)CC3)cc2)cc1S(=O)(=O)C(F)(F)F [AZD4320] + Cn1cnc2c(F)c(Nc3ccc(Br)cc3Cl)c(C(=O)NOCCO)cc21 [Selumetinib] (first compound max 1 µM, 7x7, partner max 3 µM) | 0.802 | 0.29 | 1 | 0.847 | 0.465 | 0.679 | 0.391 | 0.255 | 0.789 | 0.164 | 1 | 0.827 | 0.885 | 0.498 | 0.754 | 0.955 | 0.258 | 0.872 | 0.534 | 0.837
5 | CC1(C)CCC(CN2CCN(c3ccc(C(=O)NS(=O)(=O)c4ccc(NCC5CCOCC5)c([N+](=O)[O-])c4)c(Oc4cnc5[nH]ccc5c4)c3)CC2)=C(c2ccc(Cl)cc2)C1 [Venetoclax] + CCN(CCO)CCCOc1ccc2c(Nc3cc(CC(=O)Nc4cccc(F)c4)[nH]n3)ncnc2c1 [AZD2811] (first compound max 1 µM, 7x7, partner max 1 µM) | 0.206 | 0.399 | 0.781 | 0.486 | 0.324 | 0.413 | 0.191 | 0.186 | 0.624 | 0.187 | 1 | 0.422 | 0.824 | 0.298 | 0.27 | 0.241 | 0.205 | 0.614 | 0.174 | 0.212
6 | CC1(C)CCC(CN2CCN(c3ccc(C(=O)NS(=O)(=O)c4ccc(NCC5CCOCC5)c([N+](=O)[O-])c4)c(Oc4cnc5[nH]ccc5c4)c3)CC2)=C(c2ccc(Cl)cc2)C1 [Venetoclax] + C[C@@H](Nc1cc(F)cc(F)c1)c1cc(C(=O)N(C)C)cc2c(=O)cc(N3CCOCC3)oc12 [AZD8186] (first compound max 1 µM, 7x7, partner max 3 µM) | 0.178 | 0.422 | 0.173 | 0.436 | 0.267 | 0.735 | 0.172 | 0.283 | 0.387 | 0.21 | 1 | 0.441 | 0.697 | 0.139 | 0.113 | 0.192 | 0.433 | 0.461 | 0.151 | 0.127
